The source of these data is PubChem BioAssay (NCI).

Holding throughout (experiment): growth of human tumour cells (NCI), 48 h
The subject of experiment [1] is DU-145 prostate.
Experiment [2] has as its system RXF 393 renal.
Experiment [3] has as its system NCI-H522 lung.
The test system of experiment [4] is SK-MEL-5 melanoma.
Experiment [5] has as its system PC-3 prostate.
In experiment [6] the test system is HCT-15 colon.
For experiment [7], the system named is KM12 colon.
In experiment [8] the test system is HT29 colon.
The subject of experiment [9] is OVCAR-8 ovarian.
Experiment [10] has as its system SW-620 colon.
The subject of experiment [11] is OVCAR-4 ovarian.
Experiment [12] relates to T-47D breast.
Experiment [13] has as its system A549 NSCLC.
For experiment [14], the system named is M14 melanoma.
For experiment [15], the system named is HCT-116 colon.
Experiment [16] deals with SNB-75 CNS.
In experiment [17] the test system is SN12C renal.
Experiment [18] relates to SF-295 CNS.
The test system of experiment [19] is RPMI-8226 leukemia.

Molecules are shown by their SMILES.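 Briefly, cells in 96-well plates were exposed to five compound concentrations for 48 h, and endpoints were estimated by linear interpolation. At the TGI there is no net growth.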

For `COC(=O)[C@@H](NC(=O)[C@H](N)Cc1ccc(N(CCCl)CCCl)cc1)C(C)C`, the TGI in [1] is 59.1 µM; in [2], 55.5 µM; in experiment [3], 33.1 µM; in experiment [4], 10.8 µM; in experiment [5], > 100 µM; in [6], 72.8 µM. Besides, the TGI in experiment [7] is 66.4 µM; in experiment [8], > 100 µM; in experiment [9] it was 27.8 µM; in [10], > 77.3 µM; in experiment [11] it was 36.7 µM; in experiment [12] it was 35.5 µM. The TGI in [13] is > 100 µM; in experiment [14] it was 49.5 µM; in [15] it was 44.1 µM; in experiment [16], 66.6 µM; in experiment [17] it was > 79.7 µM; in [18], > 100 µM. In [19], this compound yielded a TGI of 34 µM.

Turning to `CC1CC(=NC2CCCCC2)Nc2ccccc2N1Cc1ccccc1` (stereo unspecified), the TGI in [1] came to 17 µM; in experiment [2], 10.5 µM; in [3] it was 13.6 µM; in [4], 6.77 µM; in [5], 18.3 µM; in experiment [6] it was 19.1 µM. Further, the TGI in experiment [7] is 17 µM; in [8] it was 12.5 µM; in experiment [9] it was 19.8 µM; in [10] it was 23 µM; in experiment [11], 20.2 µM; in experiment [12] it was 20.7 µM. Besides, the TGI in experiment [13] is 16.5 µM; in experiment [14] it was 4.46 µM; in [15] it was > 35.6 µM; in experiment [16], 3.18 µM; in [17], 22.1 µM; in experiment [18] it was 19.4 µM. In addition, the TGI in [19] is > 32.7 µM.

In the case of `Cc1nc2c(O)c3c(c(O)c2nc1C)C1C=CC3CC1`, the TGI in [1] is > 100 µM; in [2] it was 22.6 µM; in experiment [3], 37.5 µM; in [4], 27.7 µM; in [5] it was 35.9 µM; in experiment [6] it was 34.8 µM. The TGI was 31.5 µM in experiment [7]; 55.9 µM in [8]; 20.9 µM in experiment [9]; 30.3 µM in [10]; 6.22 µM in experiment [11]; 7 µM in experiment [12]. In addition, the TGI in [13] is 63.5 µM; in experiment [14] it was 29.4 µM; in experiment [15], 17.3 µM; in experiment [16], > 92.6 µM; in experiment [17] it was 27.4 µM; in [18], 47.2 µM. For the same compound, the TGI in experiment [19] stood at 15.4 µM.

Turning to `CCCCCCc1cc2cc(-c3cn4c(n3)sc3ccccc34)c(=O)oc2cc1O`, the TGI in [1], in experiment [2], in experiment [3], in experiment [4], in [5] and in experiment [6] was > 100 µM throughout. Also, the TGI in [7], in [8], in experiment [9], in experiment [10], in experiment [11] and in [12] was > 100 µM in each case. Moreover, the TGI in [13], in experiment [14], in experiment [15], in experiment [16], in [17] and in experiment [18] was > 100 µM each time. The TGI in experiment [19] is > 100 µM.

`Cc1cccc(Nc2nc3ccccc3nc2NS(=O)(=O)c2ccccc2)c1`: the TGI is > 100 µM in experiment [1]; > 100 µM in experiment [2]; 73.9 µM in experiment [3]; > 100 µM in experiment [4]; 72 µM in [5]; 65.9 µM in experiment [6]. Moreover, the TGI in [7] was > 100 µM; in experiment [8], > 100 µM; in experiment [9] it was > 100 µM; in experiment [10], > 100 µM; in [11], 19.7 µM; in [12], > 100 µM. Further, the TGI in experiment [13] was > 100 µM; in experiment [14] it was > 100 µM; in [15], > 100 µM; in [16], 63.8 µM; in experiment [17], > 100 µM; in experiment [18], > 100 µM. The TGI in experiment [19] was > 100 µM.

As for `O=CC(O)C(O)C1OC(=O)c2cc(O)c(O)c(O)c2C2=C(O)C(O)=C3OC(=O)c4c(c(O)c(O)c5c4C3C2C(=O)O5)-c2c(cc(O)c(O)c2O)C(=O)OCC1O` (stereo unspecified), the TGI in experiment [1] is > 100 µM; in [2] it was > 100 µM; in [3] it was 86.4 µM; in [4], > 100 µM; in experiment [5], > 100 µM; in [6] it was > 100 µM. The TGI was 31.2 µM in experiment [7]; 42.9 µM in experiment [8]; 45.9 µM in experiment [9]; 36.3 µM in experiment [10]; 51.5 µM in experiment [11]; > 100 µM in [12]. For the same compound, the TGI was > 100 µM in [13]; > 100 µM in [14]; 29 µM in experiment [15]; > 100 µM in [16]; 30.4 µM in experiment [17]; > 100 µM in experiment [18]. Moreover, the TGI in [19] was > 100 µM.

As for `CCO[C@@]12CCC3CC4CC[C@@](OCC)(O1)C4C32` (stereo partly specified), the TGI in experiment [1], in experiment [2], in experiment [3], in experiment [4], in experiment [5] and in experiment [6] was > 100 µM in each case. The TGI in [7], in experiment [8], in [9], in [10], in experiment [11] and in experiment [12] was > 100 µM each time. In addition, the TGI in [13], in experiment [14], in experiment [15], in [16], in [17] and in [18] was > 100 µM in each case. In addition, the TGI in experiment [19] is > 100 µM.

With `CN1C(=O)[C@H](c2c[nH]c3ccccc23)[C@H](c2c[nH]c3ccccc23)C1=O`, the TGI in experiment [1] was > 100 µM; in experiment [2], > 90.6 µM; in experiment [3], > 100 µM; in experiment [4], > 52.5 µM; in experiment [5], > 80.4 µM; in experiment [6], > 59.9 µM. Also, the TGI in experiment [7] was > 100 µM; in experiment [8], > 83.4 µM; in experiment [9] it was > 100 µM; in [10] it was > 100 µM; in [11], 50.6 µM; in experiment [12] it was > 100 µM. The TGI is > 100 µM in experiment [13]; > 100 µM in experiment [14]; > 59.1 µM in experiment [15]; > 92.8 µM in [16]; > 100 µM in experiment [17]; > 73.7 µM in experiment [18]. Besides, the TGI in [19] was > 66.9 µM.

For the compound `O=[N+]([O-])C(C(Cl)=C(Cl)Cl)=C(n1nnc2ccccc21)n1nnc2ccccc21`, the TGI in experiment [1] is > 100 µM; in [2], 50 µM; in experiment [3], 38.6 µM; in experiment [4], > 67.8 µM; in [5], > 67.3 µM; in experiment [6], 61.7 µM. Besides, the TGI in [7] is > 70.1 µM; in experiment [8] it was 59.6 µM; in experiment [9], 48.8 µM; in [10] it was 16.6 µM; in experiment [11], 66.3 µM; in [12], > 80.6 µM. The TGI in experiment [13] is > 72.4 µM; in experiment [14], 50.8 µM; in [15], 50.2 µM; in [16], > 58.1 µM; in experiment [17], 56.7 µM; in experiment [18] it was > 67.9 µM. This compound displayed a TGI in experiment [19] of 56.4 µM.

For `O=c1[nH]c2ccc(Cl)cc2o1`, the TGI in [1], in experiment [2], in [3], in experiment [4], in experiment [5] and in experiment [6] was > 100 µM in each case. The TGI in experiment [7], in [8], in experiment [9], in experiment [10], in experiment [11] and in experiment [12] was > 100 µM throughout. The TGI in experiment [13], in experiment [14], in experiment [15], in experiment [16], in experiment [17] and in [18] was > 100 µM throughout. Further, the TGI in experiment [19] was > 100 µM.

Consider `CC(=O)c1c2c(cc3c1CC1(Cc4cc5c(cc4C1)C(=O)CCC5)C3)CCCC2` (stereo unspecified), for which the TGI in experiment [1] was > 100 µM; in experiment [2] it was > 25.7 µM; in [3], 31.4 µM; in [4] it was 7.38 µM; in experiment [5], > 83.5 µM; in experiment [6], 19.3 µM. Also, the TGI in [7] is 78.4 µM; in experiment [8], > 32.7 µM; in experiment [9], > 80.6 µM; in experiment [10], > 100 µM; in experiment [11] it was > 100 µM; in experiment [12] it was > 81.7 µM. The TGI in [13] is > 88.2 µM; in [14], > 100 µM; in experiment [15], > 47.1 µM; in experiment [16] it was > 26.1 µM; in experiment [17] it was > 100 µM; in [18], > 45.5 µM. In addition, the TGI in experiment [19] was 13.2 µM.

Regarding `C/C(O)=C(\C=NC(=S)c1cccnc1)C(=O)Nc1ccccc1C`, the TGI in experiment [1], in experiment [2], in experiment [3], in experiment [4], in experiment [5] and in experiment [6] was > 100 µM throughout. The TGI in experiment [7], in experiment [8], in experiment [9], in experiment [10], in experiment [11] and in experiment [12] was > 100 µM in each case. The TGI in experiment [13], in experiment [14], in experiment [15], in experiment [16], in experiment [17] and in [18] was > 100 µM throughout. Further, the TGI in [19] is > 100 µM.

For the compound `CC(C)[C@@H]1CC[C@@H](C)C[C@H]1OC(=O)/C=C1\C(C(=O)O[C@@H]2C[C@H](C)CC[C@H]2C(C)C)[C@H]2C=C[C@@H]1O2` (stereo partly specified), the TGI in [1], in experiment [2], in [3], in experiment [4], in experiment [5] and in experiment [6] was > 100 µM throughout. Also, the TGI in experiment [7], in experiment [8], in experiment [9], in experiment [10], in [11] and in [12] was > 100 µM in each case. Also, the TGI in [13], in [14], in experiment [15], in experiment [16], in experiment [17] and in experiment [18] was > 100 µM in each case. Moreover, in experiment [19], the TGI is > 100 µM.

On to `COc1cccc(/C=C2\SC(=S)N(/C=C3\C(=O)Oc4ccccc4C3=O)C2=O)c1O`, for which the TGI in experiment [1], in [2], in experiment [3], in [4], in [5] and in [6] was > 100 µM in each case. Further, the TGI in experiment [7], in experiment [8], in experiment [9], in experiment [10], in experiment [11] and in experiment [12] was > 100 µM each time. Further, the TGI in experiment [13], in experiment [14], in experiment [15], in experiment [16], in experiment [17] and in experiment [18] was > 100 µM throughout. The compound further showed a TGI in experiment [19] of 80.3 µM.
